Experimental data as given in patent publication US20080138280A1, “Composition and Methods For Inhibiting Cell Survival” (The Cleveland Clinic Foundation, priority 2003, published 2008).

Experiments:
[1] = tested on: NF-κB DNA binding activity; experiment: Electrophoretic mobility shift assay (EMSA) of NF-κB DNA binding activity, A375 cells; type: cell-based, human
Description: Electrophoretic mobility shift assay (EMSA). These methods apply generally to FIGS. 5, 9-10 which employ EMSA analysis. In FIG. 5, A375 cells were treated with NO donors (NO-Cbl, NOC-18, SNAP, 100 μM, 16 h), or with Apo2L/TRAIL (100 ng/ml) or TNF-α (20 ng/ml) for 1 h, or with the combination of NO donors (16 h) followed by Apo2L/TRAIL or TNF-α (1 h). Plates were washed twice with ice-cold PBS. Cells were resuspended in cold 1× lysis buffer (20 mM HEPES, 20 mM NaF, 1 mM Na3VO4, 1 mM EDTA, 1 mM DTT, 100 mM NaCl, 10% glycerol and protease inhibitors) and incubated on ice for 30 min followed by centrifugation at 4° C. at 10,000 rpm for 10 min. Supernatants were transferred to fresh tubes and protein concentrations were assessed using the Bradford method (Bio-RAD protein assay, BioRad, Hercules, Calif.). The NF-κB consensus binding sequence (5′[…] 3′) from the IFN-β gene promoter was end-labeled with γ^32P dATP ([…]) using T4 polynucleotide kinase. DNA binding reactions were performed in 20 μl volume containing 10 μg protein, 20 mM HEPES, 10 mM KCl, 0.1% NP-40, 0.5 mM DIT and 10% glycerol. The binding reaction was performed for 20 min at 25° C. Complexes were separated from the free probe on 6% non-denaturing polyacrylamide gels in 0.5×TBE buffer at 200 V for 2 h. Gels were dried and exposed to film.
Inhibition of NF-κB survival signaling by NO-Cbl. Because NF-κB is an important cell survival regulator, we examined the effects of NO-Cbl on NF-κB DNA binding activity. The NF-κB binding sequence from the IFN-β gene promoter was used as a probe to assess DNA binding activity. A375 cells were treated with TNF-α (20 ng/ml), Apo2L/TRAIL (100 ng/ml) or NO-Cbl (100 μM). FIG. 5, illustrates an Electrophoretic Mobility Shift Assay (EMSA) of NF-κB DNA binding activity. Pre-treatment of A375 cells with NO-Cbl inhibited the NF-κB DNA binding activity induced by Apo2L/TRAIL and TNF-α. […] NF-κB-luc transfected A375 cells were pre-treated with NO-Cbl followed by Apo2L/TRAIL or TNF-α. […] Cell lysates were analyzed for NF-κB-luc reporter activity. […]

[2] = tested on: phospho-IκBα in A375 cells; experiment: Western blot analysis of IκBα phosphorylation; type: cell-based, human; conditions: pre-treatment 100 μM
Description: Gel Electrophoresis and Immunoblot analyses. Please see FIG. 4. Whole cell lysates were prepared in 1× lysis buffer (50 mM Tris-Cl, pH 8.0, 1% Triton×100, 10% glycerol, 1 mM EDTA, 250 mM NaCl, 1 mM DTT, 1 mM PMSF, 10 μg/ml aprotinin, 10 μg/ml leupeptin, and 10 μg/ml pepstatin) for subsequent immunoblotting studies. The SDS-PAGE was conducted by using the Laemmli buffer system and 12% polyacrylamide gels. Proteins were transferred onto PVDF membranes by the semidry method (Trans Blot SD, BioRad, Hercules, Calif.). Binding of the primary and secondary antibodies was performed according to standard protocols. Membranes were immunoblotted with pAb to caspase-3, caspase-8, XIAP (BD-Pharmingen, San Diego, Calif.), PARP (BioMOL, Plymouth Meeting, Pa.), cIAP-1, FLIP, pIκBα and IκBα (Cell Signaling, Beverly, Mass.) followed by incubation with HRP conjugated secondary antibodies (Pierce, Rockford, Ill.). Immunoreactive bands were visualized by using enhanced chemiluminescence (Perkin Elmer, Boston, Mass.). Equal protein loading was confirmed by reprobing with monoclonal anti-actin antibody (Sigma Chemicals Co, St. Louis, Mo.). All immunoblots in this study were repeated 3 times with reproducible results.
NO-Cbl treatment affected the phosphorylation state of IκBα, the prototypic inhibitor of NF-κB. Western blot analysis was performed to assess levels of phospho-IκBα and IκBα. FIG. 6 is a Western blot analysis of IκB levels and IκBα phosphorylation. IκBα and phospho-IκBα protein levels were determined in A375 whole cell lysates. […] NO-Cbl, NOC-18, and SNAP pre-treatment all inhibited Apo2L/TRAIL-induced IκBα phosphorylation.

NIH-OVCAR-3 cells = experiment: Colony formation after gamma irradiation; type: cell-based; conditions: NO-Cbl 50 μM 16 hours, then 1, 2 and 4 Gy; colonies after 23 days
Description: FIG. 7 illustrates that NO-Cbl sensitizes NIH-OVCAR-3 cells to gamma irradiation. NIH-OVCAR-3 cells were pre-treated with NO-Cbl (50 μM) for 16 hours. Cells were then washed and irradiated with 1, 2, and 4 Gy from a Cesium source. Cells were plated in 100 mm dishes and allowed to form colonies. Plates were examined after 23 days and colony number was determined by automated counting of stained colonies. Data is expressed as percent control colony forming units (CFU).

A375 cells = experiment: TUNEL apoptosis assay; type: cell-based, human; conditions: single agent, 36 h; NO-Cbl 100 μM or Apo2L/TRAIL 100 ng/ml
Description: TUNEL assay. Please see FIG. 3. A375 cells were cultured for 36 h and exposed to various treatments (control, NO-Cbl, Apo2L/TRAIL and NO-Cbl+Apo2L/TRAIL. Apoptotic cells were detected by TUNEL (terminal deoxynucleotidyltransferase-mediated dUTP-biotin nick end-labeling) staining using a commercially available kit (APO-BRDU kit, BD-Pharmingen, San Diego, Calif.). Cells were processed according to the manufacturer's recommended protocol. The percentage of FITC-positive cells was analyzed by fluorescent activated cell scanning (FACS, Becton Dickinson, Facsvantage, San Diego, Calif.).
Cell line A375 has a defect in endogenous TRAIL gene induction therefore, additive cellular responses from exogenous TRAIL/Apo2L were avoided. TUNEL assays of A375 cells treated in vitro with NO-Cbl, Apo2L/TRAIL, or the combination were performed. FIG. 3 illustrates a TUNEL apoptosis assay in accordance with the present invention. A375 cells were treated with NO-Cbl, Apo-2L/TRAIL, and the combination. […] The highest levels of apoptosis were observed when cells were pre-treated with NO-Cbl followed by Apo2L/TRAIL treatment. Treatment for 36 h with NO-Cbl (100 μM) or Apo2L/TRAIL (100 ng/ml) induced 6.2% and 5.4% TUNEL-positive cells, respectively.

Substance: nitrosylcobalamin [NO-Cbl]
- NF-κB DNA binding activity induced by Apo2L/TRAIL ([1]; NO donor 100 μM pre-treatment 16 h, Apo2L/TRAIL 100 ng/ml 1 h): inhibited
- NF-κB DNA binding activity induced by TNF-α ([1]; NO-Cbl 100 μM pre-treatment 16 h, TNF-α 20 ng/ml 1 h): inhibited
- IκBα phosphorylation induced by Apo2L/TRAIL ([2]; Apo2L/TRAIL 100 ng/ml): blocked
- IκBα phosphorylation induced by TNF-α ([2]; TNF-α 20 ng/ml): blocked
- sensitization to gamma irradiation (colony forming units) (NIH-OVCAR-3 cells): sensitizes
- TUNEL-positive cells (A375 cells): 6.2%
